Experimental data as given in patent publication US10793575B2, “Oxoisoquinoline derivatives” (CARNA BIOSCIENCES, INC., priority 2016, dated 2020).

How the values were obtained:
dephosphorylated BTK = dephosphorylated BTK (Homo sapiens (Human), UniProt Q06187); experiment: BTK Activity Inhibition Test (mobility shift assay); assay type: biochemical; details: 200 μM ATP, read-out: Inhibitory Activity on BTK
Procedure, shortened: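 Biotinylated human BTK was dephosphorylated with λ phosphatase and assayed by mobility shift, with FITC-SRCtide as substrate in 20 mM HEPES pH 7.5, 0.01% Triton X-100 and 2 mM DTT. The substrate mix held 4 μM substrate, 20 mM MgCl2 and 200 μM ATP, and the enzyme solution held 0.46 nM BTK (stock levels, not final). After 2 h at room temperature, % inhibition was derived from P/(P+S) and IC50 by log-concentration regression.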

BTK = BTK (Homo sapiens (Human), UniProt Q06187); experiment: Intracellular BTK Auto-Phosphorylation Activity Inhibition Test in Ramos cells; assay type: cell-based; details: test compound 0.03 μM, anti-IgM stimulation, pY223, read-out: Inhibitory Activity on BTK-phosphorization
Experimental: Ramos cells (2G6.4C10, ATCC No. CRL-1923) were cultured in a T75 flask containing RPMI-1640 medium (GIBCO, # A10491-01) supplemented with 10% FBS (AusGene) and 1% penicillin-streptomycin (Nacalai Tesque, Inc.) (hereinafter referred to as growth medium) in a 5% CO2 incubator.
The cultured Ramos cells were diluted to a cell density of 7.5×10^6 cells/mL with a serum-free RPMI-1640 (hereinafter referred to as medium) and kept at 37° C. for 45 minutes. The cell suspension was dispensed in 1 mL aliquots into 2.0 mL tubes. A 0.03 mM solution of the test substance in DMSO was diluted with the medium to make a 0.09 μM test compound solution, 500 μL of which was then added to the tubes and the incubation was conducted at 37° C. for 1 hour in the presence of the test compound at a final concentration of 0.03 μM. Thereafter, the anti-IgM antibody (Invitrogen, H15100) which had been diluted with the medium was added at a final concentration of 10 μg/mL, and the incubation was conducted at 37° C. for 10 minutes.
To the pellets obtained by recovering the cells via centrifugation, 100 μL of a lysis buffer [RIPA Buffer(×1)(Cell Signaling Technology, Inc.) supplemented with 1% Phosphatase inhibitor Cacktail 3 (Sigma Corporation, No. P0044), 1% Phosphatase inhibitor Cacktail (Nacalai Tesque, Inc., No. 07575) and 1 mM phenylmethylsulfonyl fluoride (PMSF)] was added and stirred gently and then allowed to stand for 10 minutes. The supernatant was recovered by centrifugation (15,000 rpm, 15 minutes) and the protein level was quantified. The portion was mixed with the SDS-sample buffer, allowed to react for 5 minutes at 95° C. to denature the protein, thereby obtaining a sample solution. Each 5 μL of the sample solutions was applied to each well containing a 5 to 20% gradient acrylamide gel (Nacalai Tesque, Inc., No. 13064-04) and electrophoresis was conducted. Thereafter, iBlot gel transfer system (Life Technologies Corporation) was used to transfer the proteins in the gel onto a PVDF membrane.
The PVDF membrane after transfer was blocked with 2% ECL prime blocking Reagent (GE Healthcare) and thereafter the reaction was conducted overnight at 4° C. using anti-BTK mouse antibody (BD transduction laboratory, No. 611116) or anti-phosphorylated BTK rabbit antibody (pY223, EPITOMICS, No. 2207-1) as a primary antibody. The unreacted primary antibody was washed with a TBST buffer (10 mM Tris-HCl (pH 7.5), 150 mM NaCl, 0.1% Tween 20) and then the reaction was conducted for 1 hour at room temperature in a TBST buffer supplemented with 2% ECL prime blocking Reagent using HRP-labeled anti-mouse IgG horse antibody (Cell Signaling Technology, No. 7076) or anti-rabbit IgG goat antibody (Cell Signaling Technology, No. 7074) as a secondary antibody. After washing the unreacted secondary antibody with the TBST buffer, Chemi-Lumi One Super (Nacalai Tesque, Inc.) was used to conduct a reaction in accordance with the attached protocol, and then the respective bands as chemiluminescences were detected with a CCD camera (GE Healthcare ImageQuant LAS 500). […] Each phosphorylated BTK band was corrected based on the total BTK.
The intracellular BTK autophosphorylation inhibiting activity was indicated with the mark “***” when 90% or more, with the mark “**” when 70% or more and less than 90%, and with the mark “*” when 50% or more and less than 70%.

wild type BTK [BTK(WT)] = wild type BTK [BTK(WT)] (Homo sapiens (Human), UniProt Q06187); experiment: C481S Mutant BTK Inhibitory Activity Test, wild type BTK (mobility shift assay); assay type: biochemical; details: 120 μM ATP
[1] = molecular target: C481S mutant BTK [BTK(C481S)] (Homo sapiens (Human), UniProt Q06187, C481S); experiment: C481S Mutant BTK Inhibitory Activity Test (mobility shift assay); assay type: biochemical; details: for IC50: C481S mutant BTK, 100 μM ATP; for C481S mutation-resistance: IC50[BTK(C481S)]/IC50[BTK(WT)]
OCI-Ly10 cells = experiment: Proliferation-Inhibitory Test Against Diffuse Large-Cell B-Cell Lymphoma OCI-Ly10 Strain; assay type: cell-based; details: Homo sapiens, 96 hours, alamarBlue
Procedure, shortened: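 In IMDM with 20% FBS, OCI-Ly10 cells (20000 cells/well) were exposed to compound at 0.9 nM to 30000 nM (0.3% DMSO final) for 96 hours. Viability was then read with alamarBlue reagent.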

Chain of C481S mutant BTK [BTK(C481S)] (Q06187 whole entry C481S): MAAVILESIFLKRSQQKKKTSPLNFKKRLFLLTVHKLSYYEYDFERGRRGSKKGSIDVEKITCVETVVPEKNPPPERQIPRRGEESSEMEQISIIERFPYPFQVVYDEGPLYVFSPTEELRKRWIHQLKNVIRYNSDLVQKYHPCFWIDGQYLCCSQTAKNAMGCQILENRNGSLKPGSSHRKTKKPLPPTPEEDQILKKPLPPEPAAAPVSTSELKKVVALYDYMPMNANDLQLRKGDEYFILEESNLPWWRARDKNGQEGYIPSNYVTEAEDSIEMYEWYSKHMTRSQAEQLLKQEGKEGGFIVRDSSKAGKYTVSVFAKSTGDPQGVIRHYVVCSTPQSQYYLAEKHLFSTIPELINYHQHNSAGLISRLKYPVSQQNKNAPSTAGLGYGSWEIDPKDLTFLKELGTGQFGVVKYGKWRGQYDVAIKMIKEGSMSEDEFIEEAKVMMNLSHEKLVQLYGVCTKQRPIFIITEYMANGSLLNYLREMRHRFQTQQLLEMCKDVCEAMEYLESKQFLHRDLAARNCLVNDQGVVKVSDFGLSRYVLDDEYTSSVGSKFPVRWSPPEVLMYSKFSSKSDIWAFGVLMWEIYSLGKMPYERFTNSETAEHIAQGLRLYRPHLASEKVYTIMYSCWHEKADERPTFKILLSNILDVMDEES
Chain of BTK (Q06187 whole entry): as the sequence (Q06187 whole entry C481S) above, with S481C counted along it
Chain of wild type BTK [BTK(WT)] (Q06187 whole entry): as the sequence (Q06187 whole entry C481S) above, with S481C counted along it
Chain of dephosphorylated BTK (Q06187 whole entry): as the sequence (Q06187 whole entry C481S) above, with S481C counted along it

SMILES: Cn1cc(-c2cc3c(-c4cccc(-n5ccc6cc(C7CC7)cc(F)c6c5=O)c4CO)nc(N)nc3[nH]2)cn1 [Example 13, 2-{3-[2-amino-6-(1-methyl-1H-pyrazol-4-yl)-7H-pyrrolo[2,3-d]pyrimidin-4-yl]-2-(hydroxymethyl)phenyl}-6-cyclopropyl-8-fluoroisoquinolin-1(2H)-one]
- IC50 (dephosphorylated BTK): < 10 nM
- inhibition at 0.03 µM (BTK): ≥ 90%
- IC50 (wild type BTK [BTK(WT)]): 0.49 nM
- IC50 [1]: 0.6 nM
- C481S mutation-resistance [1]: 1.2
- IC50 (OCI-Ly10 cells): 27 nM

SMILES: Nc1nc(-c2cccc(-n3ccc4cc(C5CC5)cc(F)c4c3=O)c2CO)c2cc(C3=CCN(C4COC4)CC3)[nH]c2n1 [Example 23, 2-(3-{2-amino-6-[1-(oxetan-3-yl)-1,2,3,6-tetrahydropyridin-4-yl]-7H-pyrrolo[2,3-d]pyrimidin-4-yl}-2-(hydroxymethyl)phenyl)-6-cyclopropyl-8-fluoroisoquinolin-1(2H)-one]
- IC50 (dephosphorylated BTK): < 10 nM
- inhibition at 0.03 µM (BTK): ≥ 90%
- IC50 (wild type BTK [BTK(WT)]): 0.46 nM
- IC50 [1]: 0.99 nM
- C481S mutation-resistance [1]: 2.2
- IC50 (OCI-Ly10 cells): 20 nM
